Laboratory results reported in US20090328246A1, “USE OF THE ocp3 MUTATION TO REGULATE DROUGHT RESISTANCE IN PLANTS” (Calantia Biotech, S.L., priority 2006, published 2009).

Tests used:
Format in all cases: in vivo, Arabidopsis thaliana
OCP3 gene = assay: Real-time PCR relative expression of OCP3 after exogenous ABA application; conditions: 150 μM ABA; wt plants; evident at very short times
Procedure: In both drought and dehydration conditions, plants respond by increasing the endogenous levels of ABA, which involves the activation of a signaling cascade having as a result a series of changes at the transcriptomic level. To study the possible effect that ABA may have in transcriptional OCP3 regulation in wt plants, the relative levels of the mRNA corresponding to the OCP3 gene is measured by quantitative RT-PCR (q-RT-PCR) at different times after applying ABA, as well as after subjecting the plants to dehydration stress. The ABI1 gene was used as a control in the experiments, the expression of which is known to be induced in response to both ABA and dehydration. As can be observed in FIG. 4, both as a result of applying 150 μM ABA and after imposing a water stress to the seedlings, a sharp drop of the accumulation levels of the transcript corresponding to the OCP3 gene is observed. Said repression in the expression of the OCP3 gene as a result of the treatment with ABA or of dehydration, already becomes evident at very short times. […]
FIG. 4. Relative expression levels of OCP3 and ABI1 in response to exogenous 150 μM ABA application (A) and dehydration (B) measured by real-time PCR. […]
The samples were analyzed in triplicate and the real-time PCR reactions were performed using Sybr Green PCR Master Mix (Applied Biosystems) in an ABI PRISM 7000 sequence detector. […]

[1] = system: rd29A, rd29B and rd22 water stress marker genes; assay: RT-PCR expression of rd29A, rd29B and rd22 water stress marker genes after exogenous ABA application
Source text: A possibility that would explain the greater sensitivity to ABA of the ocp3 mutant as well as the increase in drought resistance could be that the mutation in said gene had caused a constitutive activation of the ABA-dependent signaling pathway and the final result of which would be the constitutive expression of dehydration-responsive genes which increase the protection levels against the damage caused by water stress and therefore this would aid the plants in better resisting this type of stress. For the purpose of studying this possibility, a molecular analysis was conducted, determining the expression levels (measured as accumulation of the corresponding mRNA by RT-PCR) of several signaling marker genes in response to dehydration, both of those genes activated by the ABA-dependent route, and of those genes the activation of which is independent of the ABA route. The rd29B and rd22 genes were used as markers of the ABA-dependent pathway, whereas rd29A was used for the ABA-independent pathway. The levels of the transcripts of these genes at different times (0, 1 h, 3 h and 6 h) were analyzed after incubating the plants in a liquid medium with 150 μM ABA.
FIG. 3. Analysis of the expression by RT-PCR of rd29A, rd29B and rd22 water stress marker genes in Col-0 and ocp3 plants, using the ELF1α gene as a control. The plants were grown in MS-Agar plates for 3 weeks and the RNAs were extracted from samples collected at different times. (A) Expression levels after exogenous 150 μM ABA application in a liquid culture. (B) Expression levels 10 minutes, 30 minutes and 1, 3 and 6 hours after subjecting the plants to dehydration.
FIG. 9. Comparison of the induction by ABA of the expression of rd29A, rd29B and rd22 water stress marker genes assayed by RT-PCR in RNA samples from Col-0, ocp3, aba2-1, abi1-1 and ocp3abi1-1 plants, and using the accumulation of the mRNA corresponding to the ELF1α gene as a control. The procedure was the same as that described for FIG. 3. […]
The semi-quantitative RT-PCR technique was used to determine the relative amounts of some mRNAs of interest. […]

[2] = system: stomata of ocp3 and wt plants; assay: Measurement of the stomatal closure induced by ABA in epidermal peelings of rosette leaves; conditions: 100 μM ABA
Source text: There are different stimuli modifying the rate as well as the degree of opening/closure of the stomata and, among them, subjecting the plants to drought or depriving them of light should be emphasized, and both signalings are always directly related to an increase in the endogenous levels of ABA, a hormone determining the closure of stomata under inductive or stress conditions. To determine if there is any defect in ABA-mediated signaling in the ocp3 mutant, the decision was made to compare the stomatal closure rate between ocp3 plants and Col-0 plants, occurring after direct ABA application in epidermal samples (peelings) obtained from rosette leaves. […] Therefore, it is inferred from these experiments that the ocp3 mutant is more sensitive to the ABA hormone and this translates into an early response to this hormone which is manifested with an accelerated stomatal closure. The greater susceptibility to ABA is consistent with the hypersusceptibility shown by the seedlings when they are germinated and grown in the presence of ABA (FIG. 2). Furthermore, said hypersusceptibility to ABA could explain the drought resistance phenotype, since drought causes increases in ABA synthesis which in turn lead to the closure of stomata to prevent the loss of water by evapotranspiration. Thus, since the ocp3 mutant is more sensitive to ABA, it would accelerate the closure of its stomata with a drought signal and this promptness in the response could provide it with an advantage to resist the metabolic drawbacks derived from water privation better or for more time.
FIG. 7. Measurement of the stomatal closure induced by ABA (100 μM) in ocp3 and wt plants. Rosette leaves were detached from 6 week-old plants of the ocp3 and Col-0 genotypes and incubated in a solution (10 mM Mes-KOH pH 6.15 and 30 mM KCl) for 2 hours to induce the opening of the stomata. Then, 100 μM ABA was added to induce the closure of the stomata. The opening of the ostiole was measured at the different times indicated in epidermal peelings of the leaves with the different genetic backgrounds. […]

ocp3 plants = assay: Effect of exogenous ABA on development of seedlings in MS-Agar plates; conditions: 0.8 μM ABA in MS-Agar; ocp3 mutant vs wt (Col-0); 17 days after seeding
Procedure: To study any possible effect of exogenous ABA application in the development of ocp3 plants, seeds of said mutant were seeded in MS-Agar plates, as well as in MS-Agar plates supplemented with an ABA concentration of 0.8 μM, and always using the wt wild type genotype (Col-0) as control plants in these experiments. […] Based on this it could therefore be deduced that the loss of function which can be attributed to the ocp3 mutation yields a hypersusceptibility to the ABA hormone and therefore the normal function of the OCP3 gene would be compatible with that of regulating any repression aspect of the ABA hormone transduction pathway, either in the sense of its synthesis or in that of its correct perception.
FIG. 2. Effect of ABA in the development of ocp3 plants compared with wt (Col-0) plants. The seeds were sterilized, stratified at 4° C. for 4 days and seeded in plates with MS-Agar medium and MS-Agar supplemented with 0.8 μM ABA. The photographs were taken 17 days after the seeding.
The plants were grown in Jiffy-7 compacted substrate (Clause-Tezier Iberica, Valencia, Spain) at 23° C. with a photoperiod of 10 hours of light and 14 of darkness. For the in vitro culture, the seeds were sterilized by adding 70% ethanol for 2 minutes and commercial 30% lye for 7 minutes. Subsequently, 5-7 washes with sterile water were performed and they were stratified at 4° C. for 4 days. […]

[3] = ABA application, abi1-1 and ocp3 abi1-1 double mutant, compared with wt or ocp3

## CC1=CC(=O)CC(C)(C)[C@@]1(O)/C=C/C(C)=C\C(=O)O [ABA, abscisic acid]
OCP3 gene
  accumulation levels of the OCP3 transcript: sharp drop
[1]; 150 μM ABA, liquid medium, 0, 1 h, 3 h, 6 h
  induction and accumulation levels of rd29A, rd29B, rd22 transcripts, wt (Col-0) vs ocp3: no observable differences
[1]; [3]
  induction of the expression of the rd29A gene: greatly reduced
  induction of the expression of the rd29B and rd22 genes: virtually annulled
[2]; 30 minutes after applying, ocp3 plants
  closure of the stomata in ocp3 plants: accelerated closure
[2]; 30 minutes after applying, wt (Col-0)
  closure of the stomata in wt control: has still not started the process for closing its stomata
[2]; 2 hours after applying, ocp3 and wt plants
  state of the stomata of ocp3 and wt plants: completely closed
ocp3 plants
  development of the ocp3 mutant in the presence of ABA: arrested in the first stages of germination
